Read-outs that look alike come from different tables or passages of the source.
How the values were obtained:
WSSV = assay: In vivo quinacrine assay and WSSV challenge experiment in shrimp; design: species or system Litopenaeus vannamei
Protocol: (§1) For the WSSV challenge experiment, groups of shrimp (14 shrimp per group) were injected either with WSSV (50 μl of 100× dilution of the virus stock) or with PBS as a negative control. These first injections were then immediately followed by a second injection of 50 μl of either QC (5 μg/g) or PBS. Pleopods were excised from 3 randomly selected shrimp from each group at 0, 1, 2, 6 and 9 days post-injection (dpi) and tested for WSSV infection as described below. A second replicate of this entire experiment was performed at the same time. No pleopods were collected from the shrimp in this second replicate. Instead, mortality was observed and recorded every 12 h.
A commercial WSSV diagnostic kit (IQ2000 WSSV Detection and Prevention System, GeneReach Biotechnology Corp.) was used to determine WSSV infection levels. Briefly, genomic DNA extracted from the shrimp pleopod samples was isolated using the DTAB/CTAB extraction procedure according to the manufacturer's instructions. Next, competitive nested PCR analysis was performed using the extracted DNA samples. The PCR products were analyzed by electrophoresis with a 2% agarose gel. WSSV infection levels were determined according to the pattern of bands indicated in the kit's instructions.

[1] = test system: Encephalomyocarditis Virus (EMCV) IRES; conditions: dose-dependent; cited from earlier work
cellular p53 IRES = conditions: cited from earlier work
[2] = In vivo quinacrine dosage determination in shrimp (mortality); design: species or system Litopenaeus vannamei; conditions: injected 0.5, 2.5 or 5 μg/g body weight, 20 shrimp per group, 2 weeks
Protocol: To determine the optimal QC dosage for the challenge experiment, four groups of shrimp (20 shrimp per group) were injected with different doses ([…], 2.5 μg/g, or 5 μg/g body weight) of QC (10 mg/mL stock solution in PBS) or with PBS (negative control). The mortality of each group was observed and recorded every 12 h.
as §1

[3] = test system: hepatitis C virus (HCV) IRES; conditions: dose-dependent; cited from earlier work
poliovirus IRES = conditions: dose-dependent; cited from earlier work
icp35 IRES [4] = conditions: Sf9 cells, 48 h, relative to untreated
icp35 IRES [5] = assay: IRES activity under tunicamycin-induced ER stress, dual luciferase assay in Sf9 cells; type: cell-based, White spot syndrome virus; conditions: tunicamycin 2.5 μg/ml added 24 h post-transfection, 15 h of treatment
Protocol: After 15 h of treatment, cells were harvested. One replicate of the harvested cells was subjected to a dual luciferase assay as described above. The other replicate was subjected to Western blotting to monitor the level of the phosphorylated proteins. For this assay, 2× sample buffer was added to the cells and the mixture was boiled for 10 minutes. An aliquot (15 μl) was separated on 15% SDS-PAGE and transferred onto the PVDF membrane as described above. The blots were then blocked with 5% BSA in TBST (0.01% of Tween 20 in TBS buffer) for 1 h at RT, and probed with the commercial primary antibodies Phospho-eIF2α (Ser51) (Cell Signaling) or EIF2S1 (Abeam). The antibodies were diluted 1:1,000 in 2.5% non-fat milk in TBST and applied for 16 h at 4° C. This step was followed by washing three times for 10 min at RT with TBST. The blots were then probed with anti-Rabbit or anti-Mouse IgG secondary antibody (Santa Cruz Biotechnology) diluted 1:10,000 in 2.5% BSA in TBST for 1 hr at RT, and washed three times for 10 min at RT with TBST. Western Lightning® Plus-ECL reagents were used for visualization as described above.

Compound | mortality rate after WSSV challenge (WSSV; QC 5 μg/g injected immediately after WSSV inoculum, vs WSSV+PBS) | shrimp still alive (WSSV; WSSV+QC group, QC 5 μg/g, 9 dpi) | WSSV infection level in surviving shrimp (IQ2000 nested competitive PCR) (WSSV; WSSV+QC sample collection group, 1, 2, 6 and 9 dpi) | IRES activity [1] | sensitivity of IRES to QC (cellular p53 IRES) | survival of unchallenged shrimp [2] | IRES activity [3] | IRES activity (poliovirus IRES) | FL value (IRES-mediated firefly luciferase activity) (icp35 IRES [4]; QC 25 μM) | FL/RL ratio (icp35 IRES [4]; QC 25 μM) | FL value (IRES-mediated firefly luciferase activity) (icp35 IRES [4]; QC 30 μM) | FL/RL ratio (icp35 IRES [4]; QC 30 μM) | RL value (cap-dependent Renilla luciferase activity) (icp35 IRES [4]; […], QC 25 μM or 30 μM) | cap-dependent translation (RL activity) (icp35 IRES [5]) | icp35 IRES-dependent translation (FL activity) (icp35 IRES [5])
CCN(CC)CCCC(C)Nc1c2ccc(Cl)cc2nc2ccc(OC)cc12 (stereo not drawn) [QC, quinacrine dihydrochioride] | significantly reduced | over 70% | tested negative or had only a light infection | inhibited | not sensitive | All but one of the shrimp (in the 0.5 μg/g group) survived | inhibited | inhibited | significantly reduced | significantly reduced | significantly reduced | significantly reduced | no significant effect | – | –
tunicamycin | – | – | – | – | – | – | – | – | – | – | – | – | – | inhibited | inhibited

— patent publication US20150225739A1 (priority 2014, published 2015)
